Measurements: ChEMBL document CHEMBL1201862, “PubChem BioAssay data set” (2004)
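Results reflect a 48-hour exposure of cells in 96-well plates to compound at five concentrations. GI50 is the concentration that inhibits growth by half.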 The source made the active and inactive calls. No stated cut-off is given here; in the data, active = GI50 up to about 1.1 µM and inactive = higher.

How the values were obtained:
Assay in all cases: inhibition of tumour cell growth, NCI panel, 48 h
PC-3 = test system: PC-3
DU-145 = test system: DU-145
OVCAR-8 = test system: OVCAR-8
UACC-62 = test system: UACC-62
SW-620 = test system: SW-620
T47D = test system: T47D
NCI/ADR-RES = test system: NCI/ADR-RES
HT-29 = test system: HT-29
SR = test system: SR
MDA-MB-231 = test system: MDA-MB-231
Hs-578T = test system: Hs-578T
UO-31 = test system: UO-31
A498 = test system: A498
MDA-N = test system: MDA-N
NCI-H522 = test system: NCI-H522
RPMI-8226 = test system: RPMI-8226
ACHN = test system: ACHN
OVCAR-3 = test system: OVCAR-3
786-0 = test system: 786-0
CCRF-CEM = test system: CCRF-CEM
HOP-92 = test system: HOP-92
NCI-H460 = test system: NCI-H460
K562 = test system: K562
OVCAR-4 = test system: OVCAR-4
HCC 2998 = test system: HCC 2998
SNB-75 = test system: SNB-75
MDA-MB-435 = test system: MDA-MB-435
NCI-H226 = test system: NCI-H226
HCT-15 = test system: HCT-15
LOX IMVI = test system: LOX IMVI
RXF 393 = test system: RXF 393
SNB-19 = test system: SNB-19
SF-295 = test system: SF-295
SF-539 = test system: SF-539
KM12 = test system: KM12
MOLT-4 = test system: MOLT-4
SK-MEL-2 = test system: SK-MEL-2
TK-10 = test system: TK-10
CAKI-1 = test system: CAKI-1
COLO 205 = test system: COLO 205
SN12C = test system: SN12C
IGROV-1 = test system: IGROV-1
MCF7 = test system: MCF7
HOP-62 = test system: HOP-62
SK-MEL-5 = test system: SK-MEL-5
HL-60 = test system: HL-60
UACC-257 = test system: UACC-257
OVCAR-5 = test system: OVCAR-5
SK-MEL-28 = test system: SK-MEL-28
Malme-3M = test system: Malme-3M
U-251 = test system: U-251
A549 = test system: A549
SK-OV-3 = test system: SK-OV-3
EKVX = test system: EKVX
M14 = test system: M14
HCT-116 = test system: HCT-116
NCI-H23 = test system: NCI-H23
SF-268 = test system: SF-268

**Q.** Which GI50 (PC-3) does the source give for CC(C)CC1C(=O)NCCC(NC(=O)C(N)Cc2ccc(O)cc2)C(=O)NC(Cc2ccccc2)C(=O)NC(Cc2ccccc2)NC1=O (stereo not drawn) here?
**A.** Its GI50 is > 100 µM (inactive).

**Q.** What about the GI50 (DU-145) of the same compound?
**A.** The GI50 was > 100 µM (inactive).

**Q.** What about the GI50 (OVCAR-8) of the same compound?
**A.** The GI50 was > 100 µM (inactive).

**Q.** What about the GI50 (UACC-62) of the same compound?
**A.** The GI50 was > 100 µM (inactive).

**Q.** What about the GI50 (SW-620) of the same compound?
**A.** The GI50 was > 100 µM (inactive).

**Q.** And the GI50 (T47D)?
**A.** Its GI50 is > 100 µM (inactive).

**Q.** And the GI50 (NCI/ADR-RES)?
**A.** The GI50 was > 100 µM (inactive).

**Q.** What about the GI50 (HT-29) of the same compound?
**A.** The GI50 was > 100 µM (inactive).

**Q.** What about the GI50 (SR) of the same compound?
**A.** The GI50 was > 100 µM (inactive).

**Q.** And the GI50 (MDA-MB-231)?
**A.** Its GI50 is > 100 µM (inactive).

**Q.** And the GI50 (Hs-578T)?
**A.** Its GI50 is 0.885 µM (active).

**Q.** And the GI50 (UO-31)?
**A.** The GI50 was > 100 µM (inactive).

**Q.** What about the GI50 (A498) of the same compound?
**A.** Its GI50 is > 100 µM (inactive).

**Q.** What about the GI50 (MDA-N) of the same compound?
**A.** Its GI50 is > 100 µM (inactive).

**Q.** And the GI50 (NCI-H522)?
**A.** Its GI50 is > 100 µM (inactive).

**Q.** What about the GI50 (RPMI-8226) of the same compound?
**A.** Its GI50 is 78.2 µM (inactive).

**Q.** And the GI50 (ACHN)?
**A.** The GI50 was > 100 µM (inactive).

**Q.** And the GI50 (OVCAR-3)?
**A.** Its GI50 is > 100 µM (inactive).

**Q.** And the GI50 (786-0)?
**A.** Its GI50 is > 100 µM (inactive).

**Q.** And the GI50 (CCRF-CEM)?
**A.** Its GI50 is > 100 µM (inactive).

**Q.** What about the GI50 (HOP-92) of the same compound?
**A.** Its GI50 is 72.9 µM (inactive).

**Q.** What about the GI50 (NCI-H460) of the same compound?
**A.** Its GI50 is > 100 µM (inactive).

**Q.** And the GI50 (K562)?
**A.** The GI50 was > 100 µM (inactive).

**Q.** And the GI50 (OVCAR-4)?
**A.** Its GI50 is > 100 µM (inactive).

**Q.** What about the GI50 (HCC 2998) of the same compound?
**A.** Its GI50 is > 100 µM (inactive).

**Q.** And the GI50 (SNB-75)?
**A.** The GI50 was > 100 µM (inactive).

**Q.** And the GI50 (MDA-MB-435)?
**A.** The GI50 was > 100 µM (inactive).

**Q.** What about the GI50 (NCI-H226) of the same compound?
**A.** Its GI50 is > 100 µM (inactive).

**Q.** What about the GI50 (HCT-15) of the same compound?
**A.** Its GI50 is over 100 µM.

**Q.** And the GI50 (LOX IMVI)?
**A.** The GI50 was > 100 µM (inactive).

**Q.** What about the GI50 (RXF 393) of the same compound?
**A.** The GI50 was > 100 µM (inactive).

**Q.** What about the GI50 (SNB-19) of the same compound?
**A.** Its GI50 is > 100 µM (inactive).

**Q.** What about the GI50 (SF-295) of the same compound?
**A.** The GI50 was > 100 µM (inactive).

**Q.** And the GI50 (SF-539)?
**A.** Its GI50 is > 100 µM (inactive).

**Q.** What about the GI50 (KM12) of the same compound?
**A.** The GI50 was > 100 µM (inactive).

**Q.** And the GI50 (MOLT-4)?
**A.** The GI50 was > 100 µM (inactive).

**Q.** What about the GI50 (SK-MEL-2) of the same compound?
**A.** Its GI50 is > 100 µM (inactive).

**Q.** What about the GI50 (TK-10) of the same compound?
**A.** Its GI50 is > 100 µM (inactive).

**Q.** What about the GI50 (CAKI-1) of the same compound?
**A.** Its GI50 is > 100 µM (inactive).

**Q.** And the GI50 (COLO 205)?
**A.** The GI50 was > 100 µM (inactive).

**Q.** And the GI50 (SN12C)?
**A.** The GI50 was > 100 µM (inactive).

**Q.** What about the GI50 (IGROV-1) of the same compound?
**A.** Its GI50 is > 100 µM (inactive).

**Q.** And the GI50 (MCF7)?
**A.** The GI50 was > 100 µM (inactive).

**Q.** And the GI50 (HOP-62)?
**A.** The GI50 was > 100 µM (inactive).

**Q.** And the GI50 (SK-MEL-5)?
**A.** The GI50 was 17.9 µM (inactive).

**Q.** And the GI50 (HL-60)?
**A.** The GI50 was > 100 µM (inactive).

**Q.** And the GI50 (UACC-257)?
**A.** The GI50 was > 100 µM (inactive).

**Q.** And the GI50 (OVCAR-5)?
**A.** The GI50 was > 100 µM (inactive).

**Q.** What about the GI50 (SK-MEL-28) of the same compound?
**A.** The GI50 was > 100 µM (inactive).

**Q.** What about the GI50 (Malme-3M) of the same compound?
**A.** The GI50 was > 100 µM (inactive).

**Q.** What about the GI50 (U-251) of the same compound?
**A.** The GI50 was > 100 µM (inactive).

**Q.** And the GI50 (A549)?
**A.** The GI50 was > 100 µM (inactive).

**Q.** And the GI50 (SK-OV-3)?
**A.** The GI50 was > 100 µM (inactive).

**Q.** And the GI50 (EKVX)?
**A.** Its GI50 is > 100 µM (inactive).

**Q.** And the GI50 (M14)?
**A.** Its GI50 is > 100 µM (inactive).

**Q.** And the GI50 (HCT-116)?
**A.** The GI50 was > 100 µM (inactive).

**Q.** What about the GI50 (NCI-H23) of the same compound?
**A.** Its GI50 is > 100 µM (inactive).

**Q.** And the GI50 (SF-268)?
**A.** Its GI50 is > 100 µM (inactive).
